Test results as given in patent publication US20230017045A1, “PYRIDINE AND PYRIMIDINE CARBOXYLATE HERBICIDES AND METHODS OF USE THEREOF” (Dow AgroSciences LLC, priority 2017, published 2023).
Read-outs that look alike come from different tables or passages of the source.

System: test plant species
Experiment: Post-emergent herbicidal activity test (greenhouse, foliar spray, visual growth reduction)
Format: in vivo
Conditions: post-emergence, 336 h, 140 g ai/ha
Method in brief: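 Seedlings were raised 7-21 d in a greenhouse under a 15 h photoperiod until the first or second true leaf. Each compound, dissolved in acetone:DMSO 97:3 and diluted into a surfactant-containing spray mixture, was then applied at 187 L/ha. Plants were subirrigated, and growth reduction was scored visually at 14 d.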

[1] = ECHCG: barnyardgrass (Echinochloa crus-galli), 14 days after application, read-out: Visual Growth Reduction (%) 14 Days After Application, ECHCG
[2] = IPOHE: ivy-leaf morning glory (Ipomoea hederacea), 14 days after application, read-out: Visual Growth Reduction (%) 14 Days After Application, IPOHE
[3] = KCHSC: kochia (Bassia scoparia), 14 days after application, read-out: Visual Growth Reduction (%) 14 Days After Application, KCHSC
[4] = ORYSA: rice (Oryza sativa), 14 days after application, read-out: Visual Growth Reduction (%) 14 Days After Application, ORYSA
[5] = SETFA: giant foxtail (Setaria faberi), 14 days after application, read-out: Visual Growth Reduction (%) 14 Days After Application, SETFA
[6] = SORVU: grain sorghum (Sorghum vulgare), 14 days after application, read-out: Visual Growth Reduction (%) 14 Days After Application, SORVU
[7] = STEME: common chickweed (Stellaria media), 14 days after application, read-out: Visual Growth Reduction (%) 14 Days After Application, STEME
[8] = TRZAS: wheat, spring (Triticum aestivum), 14 days after application, read-out: Visual Growth Reduction (%) 14 Days After Application, TRZAS
[9] = blackgrass (Alopecurus myosuroides), 14 Days After Application, read-out: Visual Growth Reduction (%) ALOMY
[10] = canada thistle (Cirsium arvense), 14 Days After Application, read-out: Visual Growth Reduction (%) CIRAR
[11] = crabgrass (Digitaria sanguinalis), 14 Days After Application, read-out: Visual Growth Reduction (%) DIGSA
[12] = lambsquarters (Chenopodium album), 14 Days After Application, read-out: Visual Growth Reduction (%) CHEAL
[13] = redroot pigweed (Amaranthus retroflexus), 14 Days After Application, read-out: Visual Growth Reduction (%) AMARE
[14] = wild oat (Avena fatua), 14 Days After Application, read-out: Visual Growth Reduction (%) AVEFA
[15] = yellow nutsedge (Cyperus esculentus), 14 Days After Application, read-out: Visual Growth Reduction (%) CYPES
[16] = ALOMY: blackgrass (Alopecurus myosuroides), 14 days after application, read-out: Visual Growth Reduction (%) 14 Days After Application, ALOMY
[17] = AMARE: redroot pigweed (Amaranthus retroflexus), 14 days after application, read-out: Visual Growth Reduction (%) 14 Days After Application, AMARE
[18] = AVEFA: wild oat (Avena fatua), 14 days after application, read-out: Visual Growth Reduction (%) 14 Days After Application, AVEFA
[19] = CHEAL: lambsquarters (Chenopodium album), 14 days after application, read-out: Visual Growth Reduction (%) 14 Days After Application, CHEAL
[20] = CIRAR: canada thistle (Cirsium arvense), 14 days after application, read-out: Visual Growth Reduction (%) 14 Days After Application, CIRAR
[21] = CYPES: yellow nutsedge (Cyperus esculentus), 14 days after application, read-out: Visual Growth Reduction (%) 14 Days After Application, CYPES
[22] = DIGSA: crabgrass (Digitaria sanguinalis), 14 days after application, read-out: Visual Growth Reduction (%) 14 Days After Application, DIGSA

SMILES | pest or weed control at 140 g/ha [1] [%] | pest or weed control at 140 g/ha [2] [%] | pest or weed control at 140 g/ha [3] [%] | pest or weed control at 140 g/ha [4] [%] | pest or weed control at 140 g/ha [5] [%] | pest or weed control at 140 g/ha [6] [%] | pest or weed control at 140 g/ha [7] [%] | pest or weed control at 140 g/ha [8] [%] | pest or weed control at 140 g/ha [9] [%] | pest or weed control at 140 g/ha [10] [%] | pest or weed control at 140 g/ha [11] [%] | pest or weed control at 140 g/ha [12] [%] | pest or weed control at 140 g/ha [13] [%] | pest or weed control at 140 g/ha [16] [%] | pest or weed control at 140 g/ha [17] [%] | pest or weed control at 140 g/ha [18] [%] | pest or weed control at 140 g/ha [19] [%] | pest or weed control at 140 g/ha [20] [%] | pest or weed control at 140 g/ha [21] [%] | pest or weed control at 140 g/ha [22] [%] | further results
COC(=O)c1nc(-c2ccc(Cl)nc2Cl)ccc1Cl [F284, Methyl 2′,5,6′-trichloro-[2,3′-bipyridine]-6-carboxylate] | 0 to 29 | 60 to 74 | 0 to 29 | 0 to 29 | 0 to 29 | 85 to 94 | 0 to 29 | 0 to 29 | 0 to 29 | 30 to 44 | 0 to 29 | 0 to 29 | 0 to 29 | – | – | – | – | – | – | – | pest or weed control at 140 g/ha [14]: 0 to 29%; pest or weed control at 140 g/ha [15]: 0 to 29%
O=C(OCc1cccc(C(F)(F)F)c1)c1nc(-c2ccc(C(F)(F)F)cc2Cl)ccc1Cl [F117, 3-(Trifluoromethyl) benzyl 3-chloro-6-(2-chloro-4-(trifluoromethyl)phenyl)picolinate] | 85 to 94 | 95 to 100 | 95 to 100 | 0 to 29 | 95 to 100 | 95 to 100 | 0 to 29 | 85 to 94 | – | – | – | – | – | 45 to 59 | 95 to 100 | 60 to 74 | 95 to 100 | 85 to 94 | 0 to 29 | 95 to 100 | –
COC(=O)c1nc(-c2ccc(C(C)O)cc2Cl)ccc1Cl (centres unmarked) [F1, methyl 3-chloro-6-(2-chloro-4-(1-hydroxyethyl)phenyl)picolinate] | – | – | – | – | – | – | – | – | – | – | – | – | – | 0 to 29 | 0 to 29 | 0 to 29 | 0 to 29 | 0 to 29 | 45 to 59 | 0 to 29 | pest or weed control at 140 g/ha (barnyardgrass (Echinochloa crus-galli), 14 Days After Application, read-out: Visual Growth Reduction (%) ECHCG): 0 to 29%; pest or weed control at 140 g/ha (common chickweed (Stellaria media), 14 Days After Application, read-out: Visual Growth Reduction (%) STEME): 0 to 29%; pest or weed control at 140 g/ha (giant foxtail (Setaria faberi), 14 Days After Application, read-out: Visual Growth Reduction (%) SETFA): 0 to 29%; pest or weed control at 140 g/ha (ivy-leaf morning glory (Ipomoea hederacea), 14 Days After Application, read-out: Visual Growth Reduction (%) IPOHE): 0 to 29%; pest or weed control at 140 g/ha (johnsongrass (Sorghum vulgare), 14 Days After Application, read-out: Visual Growth Reduction (%) SORVU): 0 to 29%; pest or weed control at 140 g/ha (kochia (Bassia scoparia), 14 Days After Application, read-out: Visual Growth Reduction (%) KCHSC): 0 to 29%; pest or weed control at 140 g/ha (rice (Oryza sativa), 14 Days After Application, read-out: Visual Growth Reduction (%) ORYSA): 0 to 29%; pest or weed control at 140 g/ha (wheat, spring (Triticum aestivum), 14 Days After Application, read-out: Visual Growth Reduction (%) TRZAS): 0 to 29%
COC(=O)c1nc(-c2ccc(C3(C#N)CC3)cc2Cl)ccc1Cl [F236, Methyl 3-chloro-6-(2-chloro-4-(1-cyanocyclopropyl)phenyl)picolinate] | 0 to 29 | 95 to 100 | 75 to 84 | 0 to 29 | 75 to 84 | 75 to 84 | 45 to 59 | 0 to 29 | 0 to 29 | 85 to 94 | 75 to 84 | 85 to 94 | 30 to 44 | – | – | – | – | – | – | – | pest or weed control at 140 g/ha [14]: 0 to 29%; pest or weed control at 140 g/ha [15]: 0 to 29%
COC(=O)c1nc(-c2ccc(Cl)cc2)c(N)cc1Cl [F72, methyl 5-amino-3-chloro-6-(4-chlorophenyl)picolinate] | 0 to 29 | – | – | 0 to 29 | 0 to 29 | 0 to 29 | 0 to 29 | 0 to 29 | – | – | – | – | – | 0 to 29 | 0 to 29 | 0 to 29 | 0 to 29 | 0 to 29 | 0 to 29 | 0 to 29 | –
COC(=O)c1nc(-c2ccc(C(F)(F)F)cc2Cl)ccc1Cl [F66, methyl 3-chloro-6-(2-chloro-4-(trifluoromethyl)phenyl)picolinate] | 95 to 100 | 95 to 100 | 60 to 74 | 45 to 59 | 95 to 100 | 85 to 94 | 0 to 29 | – | – | – | – | – | – | 45 to 59 | 95 to 100 | 60 to 74 | 85 to 94 | 95 to 100 | 0 to 29 | 95 to 100 | –
C=Cc1cc(-c2nc(C(=O)OC)c(Cl)cc2F)c(Cl)cc1C(F)(F)F [F303, Methyl 3-chloro-6-(2-chloro-4-(trifluoromethyl)-5-vinylphenyl)-5-fluoropicolinate] | 0 to 29 | 95 to 100 | 0 to 29 | 0 to 29 | 0 to 29 | 0 to 29 | 0 to 29 | 0 to 29 | 0 to 29 | 0 to 29 | 0 to 29 | 75 to 84 | 0 to 29 | – | – | – | – | – | – | – | pest or weed control at 140 g/ha [14]: 0 to 29%; pest or weed control at 140 g/ha [15]: 0 to 29%
COC(=O)c1nc(-c2ccc(Cl)c(OC)c2F)cc(Cl)c1Cl [F76, methyl 3,4-dichloro-6-(4-chloro-2-fluoro-3-methoxyphenyl)picolinate] | 0 to 29 | 30 to 44 | – | 0 to 29 | 0 to 29 | 0 to 29 | 0 to 29 | 0 to 29 | – | – | – | – | – | 0 to 29 | 30 to 44 | 0 to 29 | 45 to 59 | 0 to 29 | 30 to 44 | 0 to 29 | –
COC(=O)c1nc(-c2ccc3c(c2C)OC(F)(F)O3)c(F)cc1Cl [F233, Methyl 3-chloro-6-(2,2-difluoro-4-methylbenzo[d][1,3]dioxol-5-yl)-5-fluoropicolinate] | 45 to 59 | 95 to 100 | 85 to 94 | 0 to 29 | 85 to 94 | 85 to 94 | 45 to 59 | 60 to 74 | 75 to 84 | 95 to 100 | 95 to 100 | 95 to 100 | 95 to 100 | – | – | – | – | – | – | – | pest or weed control at 140 g/ha [14]: 45 to 59%; pest or weed control at 140 g/ha [15]: 45 to 59%
